Source: patent US20080070237A1, “Npas3 Mutant Mice and Uses for Screening and Testing Therapies for Schizophrenia and Related Neurological Disorders” (priority 2003, published 2008)
Where a name gives a salt, the structure may show the parent alone. Read-outs that look alike come from different tables or passages of the source.

Tests used:
Npas3+/+ control mice = format: in vivo, mouse
Description: (§1) Locomotor Activity Tests. For all locomotor experiments, activity is measured in a 41×41×30 cm Omnitech Digiscan activity monitor equipped with 16 pairs of photodetector-LED beams along the x and y axis. (Accuscan Electronics, Columbus, Ohio). […] After the acclimation period, Baseline Locomoter Activity Test results are recorded for each test mouse. Subsequently, locomotor activity is tested following pharmacological challenges of three neurotransmitter pathways involved in schizophrenia and other neurological disorders. The pathways and the drugs used to challenge each include:
(§2) a. Methamphetamine (a dopamine pathway agonist) 1.0 mg/kg in the form of D-methamphetamine-HCL (Sigma; St. Louis, Mo.). Methamphetamine is a strong dopamine agonist that will activate D1 and D2 receptor signaling.
(§3) b. Haloperidol (a dopamine pathway antagonist) 0.3 mg/kg or 1.0 mg/kg (Tocris; Ellisville, Mo.).
(§4) The test drug is 0.3 mg/kg clozapine (Sigma; St. Louis, Mo.). An atypical neuroleptic agent, clozapine, which has a high affinity for serotonin 5-HT2 and 5-HT6 receptors, is administered to determine the involvement of serotonergic pathways. Although clozapine can also antagonize both D1 and D2-like receptors, ten times higher concentrations are necessary to inhibit dopamine-dependent hyperactivity
(§5) The test drugs are 1.0 mg/kg MK-801 or 0.3 mg/kg MK-801 (ICN Biomedicals Inc.; Aurora, Ohio). MK-801 is a noncompetitive NMDA receptor antagonist.
(§6) Each drug is administered in a subcutaneous injection volume of 5 mL/kg body weight. Post-challenge activity is measured for three hours. Horizontal activity counts (scored by visual observance or breaking a light beam) and total distance are recorded during the pre- and post-challenge periods at 3-minute intervals with VersaMax software. All Locomoter Activity Tests are performed on mice at 7-9 weeks of age, with n=12. All values are expressed as mean±SEM. Statistical analyses are performed using appropriate analysis of variance (ANOVA) followed by adapted post hoc comparisons.

Npas3−/− mice = format: in vivo, mouse
Description: as §1, §2, §3, §4, §5, §6

[1] = FIG. 28 dose of MK-801 (not stated at the place; b105: 1.0 or 0.3 mg/kg), subcutaneous
[2] = FIG. 28 dose of MK-801, subcutaneous
[3] = lower dose 0.1 mg/kg, data not shown
[4] = 0.3 mg/kg subcutaneous, post-challenge activity measured for three hours
[5] = 1.0 mg/kg subcutaneous, post-challenge activity measured for three hours

## C[C@]12N[C@H](Cc3ccccc31)c1ccccc12 [MK-801]
Npas3+/+ control mice; [1]
  horizontal locomotor activity after drug challenge: increased locomotor activity
Npas3+/+ control mice; [2]
  stereotype (stereotypy) after drug challenge: did not increase the levels of stereotype
Npas3+/+ control mice; [3]
  locomotor activity after drug challenge: did not induce hyperactivity
Npas3−/− mice; [1]
  horizontal locomotor activity after drug challenge: dramatic suppression of locomotor activity
Npas3−/− mice; [2]
  stereotype (stereotypy) after drug challenge: induced hyperstereotype
Npas3−/− mice; [3]
  locomotor activity after drug challenge: potently activated locomotion

## O=C(CCCN1CCC(O)(c2ccc(Cl)cc2)CC1)c1ccc(F)cc1 [haloperidol, Haloperidol]
Npas3+/+ control mice; [4]
  horizontal locomotor activity after drug challenge: substantial impairment in locomotor activity
Npas3−/− mice; [4]
  horizontal locomotor activity after drug challenge: partial reduction in activity

## CN[C@@H](C)Cc1ccccc1 [methamphetamine, D-methamphetamine-HCL]
Npas3+/+ control mice; [5]
  horizontal locomotor activity after drug challenge: increases locomotor behavior
Npas3−/− mice; [5]
  horizontal locomotor activity after drug challenge: failure of methamphetamine to increase locomotor activity
